According to publication PMC7037682, “Herb–Drug Interaction of Red Ginseng Extract and Ginsenoside Rc with Valsartan in Rats” (Molecules, 2020):

Key:
UGT1A9 = conditions: cited from earlier work
[1] = Plasma pharmacokinetics of ginsenosides in rats after 1-week repeated RGE; conditions: LC-MS/MS, after RGE 1.5 g/kg/day po for 1 week
Protocol: The rats were randomly divided into the control and RGE groups. The RGE group received a RGE suspension (1.5 g/mL/kg/day, in distilled water) for 7 days via oral gavage. The control group received distilled water for 7 days via oral gavage. After 1 h following the last RGE treatment, valsartan was injected intravenously to both groups via the tail vein at 1 mg/mL/kg (dissolved in DMSO: saline = 2:8, v/v). […] After centrifugation of the blood samples at 16,000× g for 10 min, aliquots (50 μL each) of plasma samples were stored at −80 °C until the analysis of ginsenosides and valsartan.
The residue was reconstituted with 100 μL of 70% methanol consisting of 0.1% formic acid. An aliquot (20 μL) from the sample was injected into the LC-MS/MS system.
After freezing the aqueous layer at −80 °C for 2 h, the upper organic layer was transferred to a clean tube and evaporated to dryness. […] An aliquot (20 μL) from the sample was injected into the LC-MS/MS system. The samples were eluted through an Omega Polar C18 column (2.1 mm × 100 mm, 3 µm particle size) (Phenomenex, Torrance, CA, USA) using a mobile phase consisting of 0.1% formic acid in water: 0.1% formic acid in methanol (15:85, v/v) at a flow rate of 0.2 mL/min.
Pharmacokinetic parameters were calculated from plasma concentration-time profile using non-compartment analysis of WinNonlin (version 5.1; Pharsights, Cary, NC, USA). The statistical significance was assessed by t-test using Statistical Package for the Social Sciences (version 24.0; SPSS Inc., Chicago, IL, USA).

OATP1B3 = target: T1, OATP1B3 (Homo sapiens, UniProt Q9NPD5); assay: Valsartan uptake by HEK293-OATP1B3 cells versus mock cells; type: cell-based; design: host or cells: HEK293; conditions: 5 μM valsartan
T1 sequence (Q9NPD5 1-702): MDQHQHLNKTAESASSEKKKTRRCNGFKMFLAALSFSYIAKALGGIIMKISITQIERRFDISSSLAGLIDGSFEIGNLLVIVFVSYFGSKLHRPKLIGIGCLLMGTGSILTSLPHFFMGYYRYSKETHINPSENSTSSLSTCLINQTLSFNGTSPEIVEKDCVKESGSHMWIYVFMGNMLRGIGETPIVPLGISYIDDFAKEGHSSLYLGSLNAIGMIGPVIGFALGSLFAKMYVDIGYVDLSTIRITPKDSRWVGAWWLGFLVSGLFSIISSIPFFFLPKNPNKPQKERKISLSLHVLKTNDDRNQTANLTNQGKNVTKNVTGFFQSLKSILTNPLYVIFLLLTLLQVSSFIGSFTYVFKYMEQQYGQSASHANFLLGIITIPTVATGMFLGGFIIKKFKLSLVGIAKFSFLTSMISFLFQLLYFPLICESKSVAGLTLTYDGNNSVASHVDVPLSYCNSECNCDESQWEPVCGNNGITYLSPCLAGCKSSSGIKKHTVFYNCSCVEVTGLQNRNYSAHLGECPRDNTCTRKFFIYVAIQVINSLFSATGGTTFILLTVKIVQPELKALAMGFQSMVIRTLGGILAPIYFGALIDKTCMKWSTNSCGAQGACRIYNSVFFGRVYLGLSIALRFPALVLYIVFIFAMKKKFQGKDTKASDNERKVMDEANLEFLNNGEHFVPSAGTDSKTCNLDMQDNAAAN
Protocol: (§1) The uptake of valsartan 5 (μM)was measured for 5 min immediately after adding aliquots (100 μL) of HBSS containing 5 μM valsartan in the presence or absence of rifampin (1–100 μM) or tri-glycosylated PPD-type ginsenosides (Rb1, Rb2, and Rc; 0.1–100 μM) to the HEK293-mock cells and HEK293-OATP1B1 and –OAPT1B3 cells after aspirating pre-incubated HBSS. […] After the centrifugation of cell lysate samples (16,000× g, 5 min, 4 °C), aliquots (4 μL) of cell lysate samples were injected into LC-MS/MS system for the analysis of valsartan. Transporter mediated uptake of probe substrates or valsartan was calculated by subtracting the uptake rate of probe substrates or valsartan into HEK293-mock cells from that into HEK293 cells expressing respective transporters.

[2] = Pharmacokinetics of iv valsartan in rats with or without repeated iv Rc; type: in vivo; conditions: rat, plasma, 1 mg/kg, valsartan 1 mg/kg iv; for AUC(0-t): read-out: AUC24h
Protocol: The rats were randomly divided into the control and Rc groups. The Rc group was injected with Rc solution (3 mg/mL/kg, dissolved in saline) intravenously via the tail vein for 5 consecutive days. The control group received saline (1 mL/kg) for 5 consecutive days via the tail vein. […] Quantification was performed in the selected reaction-monitoring mode at m/z 436.1 → 291.0 for valsartan and m/z 336.1 → 320.0 for berberine. […] The intraday and interday precision ranged from 1.80% to 9.23%.

in vivo [3] = conditions: rat, iv, 1 mg/kg
Protocol: The rats were randomly divided into the control and rifampin groups. […] Quantification was performed in the selected reaction-monitoring mode at m/z 436.1 → 291.0 for valsartan and m/z 336.1 → 320.0 for berberine. […] The intraday and interday precision ranged from 1.80% to 9.23%.

OATP1B1 and OATP1B3 = conditions: human ref 29, 30; cited from earlier work
in vivo [4] = conditions: rat, iv, 1 mg/kg; remark: listed apart in the source
Protocol: Quantification was performed in the selected reaction-monitoring mode at m/z 436.1 → 291.0 for valsartan and m/z 336.1 → 320.0 for berberine. […] The intraday and interday precision ranged from 1.80% to 9.23%.

Oatps = conditions: rats ref 29, 30; cited from earlier work
OATP1B1 = target: T2, OATP1B1 (Homo sapiens, UniProt Q9Y6L6); assay: Valsartan uptake by HEK293-OATP1B1 cells versus mock cells; type: cell-based; design: host or cells: HEK293; conditions: 5 μM valsartan
T2 sequence (Q9Y6L6 1-691): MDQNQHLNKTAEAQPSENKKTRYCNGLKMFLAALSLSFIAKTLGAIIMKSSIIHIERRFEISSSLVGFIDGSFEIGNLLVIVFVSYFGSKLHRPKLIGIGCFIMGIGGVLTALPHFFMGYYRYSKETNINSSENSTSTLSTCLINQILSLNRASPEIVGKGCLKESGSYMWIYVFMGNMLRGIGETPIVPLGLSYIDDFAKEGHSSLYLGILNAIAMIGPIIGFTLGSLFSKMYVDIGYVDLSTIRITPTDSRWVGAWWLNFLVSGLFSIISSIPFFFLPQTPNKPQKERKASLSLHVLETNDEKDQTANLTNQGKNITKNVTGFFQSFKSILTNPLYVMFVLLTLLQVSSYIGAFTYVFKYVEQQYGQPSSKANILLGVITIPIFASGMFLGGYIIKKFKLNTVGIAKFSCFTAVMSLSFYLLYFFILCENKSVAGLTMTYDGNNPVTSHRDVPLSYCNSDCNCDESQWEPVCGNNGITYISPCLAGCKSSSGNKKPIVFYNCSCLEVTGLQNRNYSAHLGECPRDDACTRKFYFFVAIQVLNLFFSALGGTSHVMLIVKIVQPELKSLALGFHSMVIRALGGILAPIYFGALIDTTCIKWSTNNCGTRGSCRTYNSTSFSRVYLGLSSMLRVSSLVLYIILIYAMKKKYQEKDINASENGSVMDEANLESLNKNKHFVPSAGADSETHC
Protocol: as §1

[5] = after Rc 3 mg/kg/day iv for 5 days

For `CC(C)=CCC[C@](C)(O[C@@H]1O[C@H](CO)[C@@H](O)[C@H](O)[C@H]1O)[C@H]1CC[C@]2(C)[C@@H]1[C@H](O)C[C@@H]1[C@@]3(C)CC[C@H](O)C(C)(C)[C@@H]3[C@@H](O)C[C@]12C` [F1], the “IC50 UGT1A9” value (UGT1A9) is listed as “did not inhibit” and the “detection in rat plasma” value [1] is listed as “not detected”.
With `CC(C)=CCC[C@](C)(O[C@@H]1O[C@H](CO)[C@@H](O)[C@H](O)[C@H]1O)[C@H]1CC[C@]2(C)[C@@H]1[C@H](O)C[C@@H]1[C@@]3(C)CC[C@H](O[C@@H]4O[C@H](CO)[C@@H](O)[C@H](O)[C@H]4O)C(C)(C)[C@@H]3CC[C@]12C` [F2] the “detection in rat plasma” value [1] was “not detected”.
In the case of `CC(C)=CCC[C@](C)(O)[C@H]1CC[C@]2(C)[C@@H]1[C@H](O)C[C@@H]1[C@@]3(C)CC[C@H](O)C(C)(C)[C@@H]3[C@@H](O[C@@H]3O[C@H](CO)[C@@H](O)[C@H](O)[C@H]3O[C@@H]3O[C@H](CO)[C@@H](O)[C@H](O)[C@H]3O)C[C@]12C` [Rf], the “IC50 UGT1A9” value (UGT1A9) is given as “did not inhibit”.
With `CCCCC(=O)N(Cc1ccc(-c2ccccc2-c2nnn[nH]2)cc1)[C@H](C(=O)O)C(C)C` [Valsartan, valsartan] the “Valsartan uptake increase, HEK293-OATP1B3 vs HEK293-mock” value (OATP1B3) was 26.1 fold, the AUC(0-inf) [2, 5] was 836 ± 112 ng·h/mL and the C0 [2, 5] was 1450 ± 998 ng/mL. It also gave an MRT [2, 5] of 2.94 ± 1.52 h, a Vd [2, 5] of 3.46 ± 1.64 L/kg and a clearance [2, 5] of 20.2 ± 2.86 mL/min/kg. The half-life [2, 5] was 3.3 ± 1.51 h, the AUC(0-t) [2, 5] was 809 ± 112 ng·h/mL and the AUC(0-inf) ([2]; control group of Rc study) was 657 ± 84.9 ng·h/mL. For the same compound, the C0 ([2]; control group of Rc study) was 401 ± 77.8 ng/mL, the MRT ([2]; control group of Rc study) was 2.27 ± 0.67 h and the Vd ([2]; control group of Rc study) was 3.43 ± 0.794 L/kg. For the same compound, the clearance ([2]; control group of Rc study) was 25.7 ± 3.5 mL/min/kg, the half-life ([2]; control group of Rc study) was 2.41 ± 1.3 h and the AUC(0-t) ([2]; control group of Rc study) was 639 ± 80.7 ng·h/mL. It also gave a C0 (in vivo [3]) of 1633.08 ± 1308.67 ng/mL, an MRT (in vivo [3]) of 3.37 ± 0.83 h and a T1/2 (in vivo [3]) of 2.79 ± 0.32 h. The Vd (in vivo [3]) was 0.05503 ± 0.02629 L/kg, the C0 (in vivo [3]; C0) was 1170 ± 119 ng/mL and the clearance (in vivo [3]; CL) was 26 ± 6.3 mL/min/kg. For the same compound, the MRT (in vivo [3]; MRT) was 2.99 ± 0.47 h, the half-life (in vivo [3]; T1/2) was 4.48 ± 1.24 h and the Vd (in vivo [3]; Vd) was 4.7 ± 1.54 L/kg. For the same compound, the “contribution of Oatp transporters in the hepato-biliary excretion” value (OATP1B1 and OATP1B3) was 70–85%, the AUC24h (in vivo [4]) was 776.59 ± 228.82 ng·h/mL and the C0 (in vivo [4]) was 781.47 ± 211.04 ng/mL. For the same compound, the MRT (in vivo [4]) was 3.81 ± 0.05 h, the T1/2 (in vivo [4]) was 4.59 ± 0.73 h and the Vd (in vivo [4]) was 0.08538 ± 0.02582 L/kg. The AUC(0-t) (in vivo [4]; AUC24h) was 859 ± 234 ng·h/mL, the AUC(0-inf) (in vivo [4]; AUC∞) was 882 ± 247 ng·h/mL and the C0 (in vivo [4]; C0) was 648 ± 50.5 ng/mL. The clearance (in vivo [4]; CL) was 20 ± 5.48 mL/min/kg, the MRT (in vivo [4]; MRT) was 3.76 ± 1.16 h and the half-life (in vivo [4]; T1/2) was 4.55 ± 0.98 h. For the same compound, the Vd (in vivo [4]; Vd) was 4.33 ± 0.922 L/kg, the “contribution of Oatp transporters in the hepato-biliary excretion” value (Oatps) was 70–85% and the “Valsartan uptake increase, HEK293-OATP1B1 vs HEK293-mock” value (OATP1B1) was 19.8 fold.
